This note sets out measurements from patent publication US5439922A, “Piperidyl-substituted indoles for treating anxiety” (H. Lundbeck A/S, priority 1990, dated 1995).

“Also recorded” adds a separate entry of the source. Where two headings read alike, the source gives them in different places.

By ED50 is commonly meant the midpoint of the dose-response relation.

Data set [1] is described as follows: Catalepsy test (rat, vertical wire mesh, s.c.). The settings on record: sc. From the text: Evaluation of catalepsy was made according to Arnt (Eur. J. Pharmacol. 90, 47-55 (1983)). Catalepsy is an indicator of dopamine receptor blockade in vivo which corrolates to the clinical potency of the classical neuroleptics. However, catalepsy is also considered to indicate extrapyramidal side effects (Arnt, J. et al.; Neuropharrnacology 1981, 20, 1331-1334.
In this test test compound is given s.c. in different doses. The rat (170-240 g )is placed on a vertical wire mesh (mesh diameter 12 mm ). The rat is considered cataleptogenic if it remains immobile for more than 15 sec. The maximum number of rats showing catalepsy within the first 6 hours is recorded for each dose group. The results are recorded in fractions and an ED50 value is calculated by means of log-probit analysis.
The following corresponding 1-aryl-3-(1,2,3,6-tetrahydropyridyl)- or 1-aryl-3-(piperazinyl)indole derivatives which are analogues of Lu 23-174 and Compound No 12, respectively, were included in the test as comparing compounds:
A) 1-(4-Fluorophenyl)-3-[1-[2-(2-imidazolidinon-1-yl)ethyl]-1,2,3,6-tetrahydropyridin-4-yl]-5-trifluoromethyl-1H-indole
B) 5-Chloro-1-(4-fluorophenyl)-3-[1-[2-(2-imidazolidinon-1-yl)ethyl]-1,2,3,6- tetrahydro-4-pyridyl]-1H-indole
C) 5-Chloro-1-(4-fluorophenyl)-3-[4-[2-(2-imidazolidinon-1-yl)ethyl]-1-piperazinyl]-1H-indole

The nature of data set [2]: Inhibition of isolation induced aggression in mice. In kind it is in vivo, mouse (male NMRI/BOM, SPF). As to conditions: for ED50: Mus musculus. From the text: This test is used to evaluate the ability of a test substance to inhibit isolation induced aggressive behaviour in mice and is considered to be a test model for anxiolytic effect. The method is a modified version of the method described by McMillen et al. in Drug Develop. Research 12, 53-62, 1988.
Male mice (NMRI/BOM,SPF) weighing 16-18 g were used. The mice were housed individually in macrolon cages for 3 weeks before training to attack an intruder mouse. The mice were trained daily for a period of 1-2 weeks until a satisfactory respons was obtained. During the first days the mice were trained against each other. When a satisfactory respons was obtained group-housed mice were used as intruders. The time elapsed until attack was recorded. The intruder mouse was removed as soon as an attack had occured or after 180 sec. After the training period 60-70 percent of the mice had latencies of less than 10 sec.
The mice were pretested before drug treatment. Only mice attacking within 25 sec. were used. The animals were treated with test substance or saline. The mice were tested 30 or 120 minutes later, respectively. Nonspecific motoric effects were also recorded. 8 mice were used per group.
The results were stated as fractions of mice with attack latencies greater than or equal to a threshold value. As threshold values were used 180 and 90 sec. ED50 values were calculated by log-probit analysis.
The results are given in the following table as ED50 values in μmol/kg. The known compounds diazepam, buspirone and ritanserin were included in the test for the purpose of comparison.

A short description of data set [3]: Light/dark discrimination test in rats. The settings on record: rat, s.c.; observation 2h. In kind it is in vivo, rat (Wistar WU). Here is the method:
The test was carried out similarly to the test in mice described above, however modified in accodance with F. C. Colpaert et al., Psychopharmacology (1985) 86: 45-54. The test used Wistar WU rats.

Data set [4] in a line: Light/dark discrimination test in mice (two compartment activity box). As to conditions: mouse, i.p. It is filed as in vivo, mouse (male albino BKW). As to the method:
This test was carried out in accordance with the method described in Costall et al. Br. J. Pharmacol. 90 275P (1987).
The test was conducted using a two compartment activity box in which the actions of anxiolytic compounds to reduce aversion against a brightly-lit environment may be readily detected. The box is designed as an open-top experimental box (45*27*27 cm) one third of which was partitioned from the rest, painted black and illuminated with red light. The remainder of the box was painted white and brightly illuminated (1000 W). The floor of each area was lined into squares. Behavioural changes were determined for each area from video recordings for periods of 40 min. Data obtained from dose groups of 5 animals (male albino BKW mice, 25-30 g ) were analysed using single factor analysis of variance, and Dunnett's t-test. Test compounds were given intrapentoneally 45 min before testing.
The results are given in the following Table 2 as minimum doses (mg/kg i.p.) tested showing effect (p<0.001). The behavioural change used were exploratory rearings and line crossings.
The known substances diazepam, and ondansetron were included in the test for comparison purposes.

The mark [5] stands for this setting: 0.5 h, attack latency threshold 90 sec., 30 min pretreatment, read-out: ED50, threshold 90 sec., 30 min pretreatment.
The mark [6] stands for this setting: 0.5 h, attack latency threshold 180 sec., 30 min pretreatment, read-out: ED50, threshold 180 sec., 30 min pretreatment.
The mark [7] stands for this setting: 2 h, attack latency threshold 90 sec., 120 min pretreatment, read-out: ED50, threshold 90 sec., 120 min pretreatment.
The mark [8] stands for this setting: 2 h, attack latency threshold 180 sec., 120 min pretreatment, read-out: ED50, threshold 180 sec., 120 min pretreatment.

As for `O=C1NCCN1CCN1CC=C(c2cn(-c3ccc(F)cc3)c3ccc(C(F)(F)F)cc23)CC1` [A, 1-(4-Fluorophenyl)-3-[1-[2-(2-imidazolidinon-1-yl)ethyl]-1,2,3,6-tetrahydropyridin-4-yl]-5-trifluoromethyl-1H-indole, reference compound], the ED50 at 6 h in data set [1] (in vivo) is 0.49 µmol/kg.

Take `O=C1NCCN1CCN1CC=C(c2cn(-c3ccc(F)cc3)c3ccc(Cl)cc23)CC1` [B, 5-Chloro-1-(4-fluorophenyl)-3-[1-[2-(2-imidazolidinon-1-yl)ethyl]-1,2,3,6-tetrahydro-4-pyridyl]-1H-indole, reference compound]: in data set [1] (in vivo), the ED50 at 6 h turned out to be 2.2 µmol/kg.

Regarding `O=C1CC2(CCCC2)CC(=O)N1CCCCN1CCN(c2ncccn2)CC1` [Buspirone], the ED50 stood at 9.6 µmol/kg in data set [2] (setting [5]) and 5.4 µmol/kg in data set [2] (setting [6]).

Compound `O=C1NCCN1CCN1CCN(c2cn(-c3ccc(F)cc3)c3ccc(Cl)cc23)CC1` [C, 5-Chloro-1-(4-fluorophenyl)-3-[4-[2-(2-imidazolidinon-1-yl)ethyl]-1-piperazinyl]-1H-indole, reference compound] yielded an ED50 at 6 h in data set [1] (rat) of 4.5 µmol/kg.

With `O=C1OCCN1CCN1CCC(c2cn(-c3ccc(F)cc3)c3ccc(Cl)cc23)CC1` [Compound 2, 5-chloro-1-(4-fluorophenyl)-3-[1-[2-(2-oxazolidinon-1-yl)ethyl]-4-piperidyl]-1H-indole], the ED50 at 6 h in data set [1] (rat) was over 18 µmol/kg.

Compound `CN1CCN(CCN2CCC(c3cn(-c4ccc(F)cc4)c4ccc(Cl)cc34)CC2)C1=O` [Compound 3, 5-chloro-1-(4-fluorophenyl)-3-[1-[2-(3-methyl-2-imidazolidinon-1-yl)ethyl]-4-piperidyl]1H-indole] gave an ED50 at 6 h in data set [1] (in vivo) of 31 µmol/kg.

In the case of `O=C1CCCN1CCN1CCC(c2cn(-c3ccc(F)cc3)c3ccc(Cl)cc23)CC1` [Compound 4, 5-chloro-1-(4-fluorophenyl)-3-[1-[2-(2-pyrrolidinon-1-yl)ethyl]-4-piperidyl]-1H-indole], in data set [1] (in vivo), the ED50 at 6 h amounted to 23 µmol/kg.

`O=C1NCCN1CCN1CCC(c2cn(-c3ccc(F)cc3)c3ccc(C(F)(F)F)cc23)CC1` [Compound 12, 1-(4-fluorophenyl)-3-[1-[2-(2-imidazolidinon-1-yl)ethyl]-4-piperidyl]-5-trifluomethyl-1H-indole] gave an ED50 at 6 h in data set [1] (rat) of 38 µmol/kg.

Consider `CC(C)N1CCN(CCN2CCC(c3cn(-c4ccc(F)cc4)c4ccc(Cl)cc34)CC2)C1=O` [Compound 14, 5-chloro-1-(4-fluorophenyl)-3-[1-[2-[3-(2-propyl)-2-imidazolidinon-1-yl]ethyl]-4-piperidyl]-1H-indole], for which, in data set [1] (rat), the ED50 at 6 h was over 69 µmol/kg.

On to `O=C1NCCN1CCN1CCC(c2cn(-c3ccc(F)cc3)c3ccc(F)cc23)CC1` [Compound 16, 5-fluoro-1-(4-fluorophenyl)-3-[1-[2-(2-imidazolidinon-1-yl)ethyl]-4-piperidyl]-1H-indole], for which, in data set [1] (rat), the ED50 at 6 h is over 78 µmol/kg. Also, the 50% effective dose (ED50) in data set [2] (setting [7]) stood at 2.1 µmol/kg; in data set [2] (setting [8]), 1.6 µmol/kg.

Compound `Cc1ccc2c(c1)c(C1CCN(CCN3CCNC3=O)CC1)cn2-c1ccc(F)cc1` [Compound 24, 1-(4-fluorophenyl)-3-[1-[2-(2-imidazolidinon-1-yl)ethyl]-4-piperidyl]-5-methyl-1H-indole] gave an ED50 at 6 h in data set [1] (rat) of over 95 µmol/kg. Also, the ED50 turned out to be 3.2 µmol/kg in data set [2] (setting [7]) and 2.5 µmol/kg in data set [2] (setting [8]).

In the case of `CN1C(=O)CN=C(c2ccccc2)c2cc(Cl)ccc21` [Diazepam], the ED50 in data set [2] (0.5 h, read-out: ED50, threshold 90 sec., 30 min pretreatment) is 26 µmol/kg; in data set [2] (0.5 h, read-out: ED50, threshold 180 sec., 30 min pretreatment), 15 µmol/kg.

Turning to `O=C1NCCN1CCN1CCC(c2cn(-c3ccc(F)cc3)c3ccccc23)CC1` [Lu 23-086, 1-(4-fluorophenyl)-3-[1-[2-(2-imidazolidinon-1-yl)ethyl]-4-piperidyl]-1H-indole], the ED50 in data set [2] (setting [7]) was 1.9 µmol/kg; in data set [2] (setting [8]), 1.7 µmol/kg.

`O=C1NCCN1CCN1CCC(c2cn(-c3ccc(F)cc3)c3ccc(Cl)cc23)CC1` [Lu 23-174, 5-chloro-1-(4-fluorophenyl)-3-[1-[2-(2-imidazolidinon-1-yl)ethyl]-4-piperidyl]-1H-indole] came in with an ED50 at 6 h in data set [1] (rat) of over 98 µmol/kg. In addition, the “Effect in light/dark discrimination test in rats (active dose in words)” value in data set [3] is “showed effect in nano molar doses/kg”. The figures for the ED50 in data set [2] (setting [5]) and in data set [2] (setting [6]) were 4.4 µmol/kg and 3.2 µmol/kg, respectively.

On to `Cc1nc2sccn2c(=O)c1CCN1CCC(=C(c2ccc(F)cc2)c2ccc(F)cc2)CC1` [Ritanserin], for which, in data set [4], the “Effect in light/dark discrimination test in mice” value is “did not show effect; also recorded: inactive”. Also, the “Effect in light/dark discrimination test in rats (active dose in words)” value in data set [3] was “only active in μmolar doses/kg”. Further, the ED50 is over 21 µmol/kg in data set [2] (setting [5]), over 21 µmol/kg in data set [2] (setting [6]), over 10 µmol/kg in data set [2] (setting [7]) and over 10 µmol/kg in data set [2] (setting [8]). In data set [2] (mouse, in vivo), the “Effect in the aggression test” value is listed as “showed no effect”.
